According to ChEMBL document CHEMBL1201862, “PubChem BioAssay data set” (2004):
Active and inactive are the calls of the source.

Assays:
[1] = NIH-3T3 fibroblast cytotoxicity, dose response, cytotoxicity control, cell-based, fluorescence, Alamar Blue, secondary assay (AID 2327); type: functional;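 further: NIH-3T3 mouse fibroblasts cultured with fluconazole at 8 µg/mL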
[2] = fluconazole-exposed Candida albicans growth modulators – fluorescence, retest, confirmation (AID 2467); type: functional, cell-based
[3] = biological target: T1, Mannose-6-phosphate isomerase (Homo sapiens, UniProt P34949); experiment: MPI inhibition at elevated mannose 6-phosphate – biochemical, fluorescence intensity, high mannose 6-phosphate, primary screen (AID 1220)
T1 sequence (P34949 whole entry): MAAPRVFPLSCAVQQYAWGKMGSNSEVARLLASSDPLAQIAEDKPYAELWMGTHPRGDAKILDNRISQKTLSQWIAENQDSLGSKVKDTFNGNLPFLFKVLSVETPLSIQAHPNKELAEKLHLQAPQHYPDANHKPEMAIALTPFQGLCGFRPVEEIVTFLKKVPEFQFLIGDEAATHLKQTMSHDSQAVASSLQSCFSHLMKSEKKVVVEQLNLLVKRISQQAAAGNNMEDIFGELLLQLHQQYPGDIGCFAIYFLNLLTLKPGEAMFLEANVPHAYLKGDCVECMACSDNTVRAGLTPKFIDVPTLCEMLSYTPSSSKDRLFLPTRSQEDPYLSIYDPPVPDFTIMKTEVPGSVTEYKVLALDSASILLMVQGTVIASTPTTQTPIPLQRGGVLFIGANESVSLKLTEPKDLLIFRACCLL

[4] = biological target: DNA dC->dU-editing enzyme APOBEC-3G (Homo sapiens, UniProt Q9HC16); experiment: Dose Response confirmation of small molecule APOBEC3G DNA Deaminase Inhibitors via a fluorescence-based single-stranded DNA deaminase assay. [Related pubchem assays (depositor defined):AID493012, AID493028]; type: functional
Chain of DNA dC->dU-editing enzyme APOBEC-3G (Q9HC16 whole entry): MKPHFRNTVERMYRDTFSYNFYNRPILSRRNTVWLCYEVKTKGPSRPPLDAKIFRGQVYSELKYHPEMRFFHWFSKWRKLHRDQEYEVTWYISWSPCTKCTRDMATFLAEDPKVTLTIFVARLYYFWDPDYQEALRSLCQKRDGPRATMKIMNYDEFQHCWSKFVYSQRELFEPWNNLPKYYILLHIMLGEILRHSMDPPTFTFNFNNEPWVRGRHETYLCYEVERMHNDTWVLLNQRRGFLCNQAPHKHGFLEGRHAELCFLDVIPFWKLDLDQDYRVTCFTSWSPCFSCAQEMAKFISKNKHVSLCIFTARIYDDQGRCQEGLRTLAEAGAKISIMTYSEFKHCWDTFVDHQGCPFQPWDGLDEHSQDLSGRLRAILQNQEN

Genome polyprotein = Genome polyprotein (Hepatitis C virus, UniProt Q2Q167); experiment: disruption of hepatitis C core self-association – biochemical, TR-FRET, dose response (AID 2159); set-up: species or system Hepacivirus hominis;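 further: blocks dimerization of HCV core protein measured by TR-FRET between tagged core106 pairs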
Chain of Genome polyprotein (Q2Q167 whole entry): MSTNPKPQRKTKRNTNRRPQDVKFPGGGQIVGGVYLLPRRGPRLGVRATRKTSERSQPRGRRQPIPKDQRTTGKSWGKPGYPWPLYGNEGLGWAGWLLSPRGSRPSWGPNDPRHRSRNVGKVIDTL

Estrogen receptor = biological target: T2, Estrogen receptor (Homo sapiens, UniProt P03372);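 further: potency for inhibiting coactivator peptide recruitment to the receptor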
T2 sequence (P03372 whole entry): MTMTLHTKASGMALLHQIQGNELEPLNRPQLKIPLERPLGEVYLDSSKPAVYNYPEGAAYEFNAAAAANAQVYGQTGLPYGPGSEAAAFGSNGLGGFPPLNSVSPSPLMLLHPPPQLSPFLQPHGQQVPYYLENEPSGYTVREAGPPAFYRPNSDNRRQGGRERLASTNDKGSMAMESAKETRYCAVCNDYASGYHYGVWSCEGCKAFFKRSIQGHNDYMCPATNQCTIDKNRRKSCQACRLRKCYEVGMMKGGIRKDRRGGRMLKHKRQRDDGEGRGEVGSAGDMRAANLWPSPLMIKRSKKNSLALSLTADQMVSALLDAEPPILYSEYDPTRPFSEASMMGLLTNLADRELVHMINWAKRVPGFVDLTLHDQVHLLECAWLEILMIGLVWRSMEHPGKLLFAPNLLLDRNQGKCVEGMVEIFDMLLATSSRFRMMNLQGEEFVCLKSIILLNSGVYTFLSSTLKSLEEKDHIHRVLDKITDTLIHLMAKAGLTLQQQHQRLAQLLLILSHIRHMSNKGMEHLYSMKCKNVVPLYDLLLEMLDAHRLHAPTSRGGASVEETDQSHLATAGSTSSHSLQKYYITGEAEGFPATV

[5] = biological target: Dual specificity tyrosine-phosphorylation-regulated kinase 1A (Rattus norvegicus, UniProt Q63470); type: biochemical, Homo sapiens
[6] = biological target: T3, Carboxy-terminal domain RNA polymerase II polypeptide A small phosphatase 1 (Homo sapiens, UniProt Q9GZU7); experiment: CTDSP1 inhibitors, concentration-response, biochemical, absorbance readout, ultra-high-throughput screen actives (AID 540297); type: functional
T3 sequence (Q9GZU7 whole entry): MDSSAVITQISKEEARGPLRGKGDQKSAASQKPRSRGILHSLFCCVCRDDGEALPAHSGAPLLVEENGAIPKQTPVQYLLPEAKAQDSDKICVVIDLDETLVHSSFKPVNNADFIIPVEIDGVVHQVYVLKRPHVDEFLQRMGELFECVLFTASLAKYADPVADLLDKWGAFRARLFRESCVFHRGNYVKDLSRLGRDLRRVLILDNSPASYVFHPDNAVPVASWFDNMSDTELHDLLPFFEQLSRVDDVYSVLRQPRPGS

[7] = biological target: T1, Mannose-6-phosphate isomerase; experiment: MPI enzyme activity inhibition – biochemical, fluorescence intensity, coupled assay, primary screen (AID 1209)
[8] = biological target: T4, Calpain-2 catalytic subunit (Sus scrofa, UniProt P43367); experiment: m-calpain protease blockers, concentration series – biochemical, fluorogenic peptide substrate, dose response (AID 1420); type: functional
T4 sequence (P43367 whole entry): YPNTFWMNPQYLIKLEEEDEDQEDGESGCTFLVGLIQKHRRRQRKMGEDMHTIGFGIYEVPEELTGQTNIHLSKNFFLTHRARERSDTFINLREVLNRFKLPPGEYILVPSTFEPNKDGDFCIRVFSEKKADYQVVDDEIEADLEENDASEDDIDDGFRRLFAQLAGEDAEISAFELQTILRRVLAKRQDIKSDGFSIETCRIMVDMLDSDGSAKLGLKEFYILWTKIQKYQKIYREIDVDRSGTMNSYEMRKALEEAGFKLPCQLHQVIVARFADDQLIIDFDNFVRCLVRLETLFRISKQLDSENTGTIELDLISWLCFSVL

[9] = biological target: T5, Replicative DNA helicase DnaB (Mycobacterium tuberculosis, UniProt P9WMR3); experiment: DnaB intein splicing inhibitors, dose response, biochemical, cell-free fluorescence (AID 449749); type: functional
T5 sequence (P9WMR3 whole entry): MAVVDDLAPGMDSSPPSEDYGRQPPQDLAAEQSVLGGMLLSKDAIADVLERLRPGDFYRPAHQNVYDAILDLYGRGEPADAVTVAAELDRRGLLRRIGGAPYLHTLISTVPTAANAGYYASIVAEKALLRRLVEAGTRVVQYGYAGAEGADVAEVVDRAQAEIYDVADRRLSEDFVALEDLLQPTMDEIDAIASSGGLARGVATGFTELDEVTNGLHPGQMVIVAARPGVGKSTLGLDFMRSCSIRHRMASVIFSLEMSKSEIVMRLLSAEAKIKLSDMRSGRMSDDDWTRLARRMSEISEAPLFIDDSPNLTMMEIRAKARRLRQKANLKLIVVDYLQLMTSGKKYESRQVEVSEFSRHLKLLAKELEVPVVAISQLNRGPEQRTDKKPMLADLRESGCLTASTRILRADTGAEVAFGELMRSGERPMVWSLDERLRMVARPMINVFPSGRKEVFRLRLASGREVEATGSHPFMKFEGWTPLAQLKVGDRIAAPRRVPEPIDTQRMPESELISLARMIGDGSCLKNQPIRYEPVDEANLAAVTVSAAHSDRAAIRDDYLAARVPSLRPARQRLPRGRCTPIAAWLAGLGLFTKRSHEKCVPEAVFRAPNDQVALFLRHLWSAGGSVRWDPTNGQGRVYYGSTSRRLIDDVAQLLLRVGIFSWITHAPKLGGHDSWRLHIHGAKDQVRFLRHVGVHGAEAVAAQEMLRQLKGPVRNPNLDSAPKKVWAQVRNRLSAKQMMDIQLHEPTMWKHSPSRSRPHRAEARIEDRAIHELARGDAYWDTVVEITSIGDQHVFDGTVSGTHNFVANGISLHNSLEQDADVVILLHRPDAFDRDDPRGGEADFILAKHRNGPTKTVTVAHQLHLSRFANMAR

Protein RecA = biological target: T6, Protein RecA (Mycobacterium tuberculosis, UniProt P9WHJ3); experiment: Fluorescence Cell-Free Homogeneous Dose Retest to Identify Inhibitors of RecA-Intein Splicing Activity. [Related pubchem assays (depositor defined):AID2097, AID2223, AID489010, AID492950]; type: functional
T6 sequence (P9WHJ3 whole entry): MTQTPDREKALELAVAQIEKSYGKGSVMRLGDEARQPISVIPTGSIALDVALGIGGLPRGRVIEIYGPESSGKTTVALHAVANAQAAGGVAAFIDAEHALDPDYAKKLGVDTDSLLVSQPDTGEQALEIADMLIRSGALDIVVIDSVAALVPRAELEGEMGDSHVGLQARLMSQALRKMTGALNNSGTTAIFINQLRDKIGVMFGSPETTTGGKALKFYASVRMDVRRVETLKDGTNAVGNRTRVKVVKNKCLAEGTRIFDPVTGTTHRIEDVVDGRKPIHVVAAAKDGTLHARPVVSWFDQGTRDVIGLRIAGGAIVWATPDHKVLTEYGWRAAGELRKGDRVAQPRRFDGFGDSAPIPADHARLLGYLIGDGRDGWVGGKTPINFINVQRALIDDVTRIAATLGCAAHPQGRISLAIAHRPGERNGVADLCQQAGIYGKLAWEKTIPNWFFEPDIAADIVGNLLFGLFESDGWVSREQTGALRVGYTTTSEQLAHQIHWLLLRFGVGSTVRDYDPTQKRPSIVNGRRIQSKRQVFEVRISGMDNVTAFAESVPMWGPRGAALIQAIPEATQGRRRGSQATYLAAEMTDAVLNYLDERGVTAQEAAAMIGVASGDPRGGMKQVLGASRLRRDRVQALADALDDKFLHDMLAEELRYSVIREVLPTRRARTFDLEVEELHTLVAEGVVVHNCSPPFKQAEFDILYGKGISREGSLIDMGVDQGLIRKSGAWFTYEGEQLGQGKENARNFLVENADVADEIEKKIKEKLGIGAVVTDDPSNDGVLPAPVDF

Protein Tat = biological target: T7, Protein Tat (Human immunodeficiency virus type 1 group M subtype B (isolate HXB2)(HIV-1), UniProt P04608); type: functional;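 further: tat binding to TAR RNA read out by fluorescence polarization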
T7 sequence (P04608 whole entry): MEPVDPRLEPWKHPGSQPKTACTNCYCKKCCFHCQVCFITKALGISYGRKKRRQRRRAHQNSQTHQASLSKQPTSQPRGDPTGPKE

[10] = viability loss in THP-1 monocytes – THP-1 cells, cytotoxicity control for Vif-APOBEC3G degradation inhibitor project, dose response (AID 1117359); type: functional; conditions: THP-1
[11] = viability loss in Vero cells – cytotoxicity control for Vif-APOBEC3G degradation inhibitor project, dose response (AID 1117358); type: functional; conditions: Vero
[12] = biological target: E3 ubiquitin-protein ligase Mdm2 (Homo sapiens, UniProt Q00987); experiment: MDM2-luc reporter signal enhancers, multi-concentration potency testing, MDM2 ubiquitin-protein ligase inhibitor program, whole-cell format, luminescence detection, 384-well microplate (AID 1394); type: functional;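 further: MDM2 E3 inhibitors raise luminescence so EC50 is for signal enhancement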
Chain of E3 ubiquitin-protein ligase Mdm2 (Q00987 whole entry): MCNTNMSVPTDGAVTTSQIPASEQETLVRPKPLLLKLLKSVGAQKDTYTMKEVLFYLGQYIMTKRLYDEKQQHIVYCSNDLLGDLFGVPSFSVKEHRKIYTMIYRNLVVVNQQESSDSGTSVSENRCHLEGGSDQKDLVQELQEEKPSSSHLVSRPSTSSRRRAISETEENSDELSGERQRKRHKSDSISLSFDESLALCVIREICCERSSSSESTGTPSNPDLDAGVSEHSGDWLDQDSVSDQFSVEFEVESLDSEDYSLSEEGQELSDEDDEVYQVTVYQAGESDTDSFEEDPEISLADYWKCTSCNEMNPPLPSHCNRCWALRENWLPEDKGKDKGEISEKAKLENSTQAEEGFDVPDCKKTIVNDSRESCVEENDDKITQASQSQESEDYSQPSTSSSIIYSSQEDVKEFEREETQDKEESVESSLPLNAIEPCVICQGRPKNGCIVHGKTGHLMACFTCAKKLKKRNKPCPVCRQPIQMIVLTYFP

[13] = biological target: T8, Microphthalmia-associated transcription factor (Homo sapiens, UniProt O75030); experiment: reducers of TRPM1 reporter luminescence, concentration series – cell-based, SK-MEL-5, cherry-picked, set 3, MITF inhibitor project, dose response (AID 493073); type: functional;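 further: SK-MEL-5 melanoma cells with luciferase driven by the MITF target TRPM1 promoter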
T8 sequence (O75030 whole entry): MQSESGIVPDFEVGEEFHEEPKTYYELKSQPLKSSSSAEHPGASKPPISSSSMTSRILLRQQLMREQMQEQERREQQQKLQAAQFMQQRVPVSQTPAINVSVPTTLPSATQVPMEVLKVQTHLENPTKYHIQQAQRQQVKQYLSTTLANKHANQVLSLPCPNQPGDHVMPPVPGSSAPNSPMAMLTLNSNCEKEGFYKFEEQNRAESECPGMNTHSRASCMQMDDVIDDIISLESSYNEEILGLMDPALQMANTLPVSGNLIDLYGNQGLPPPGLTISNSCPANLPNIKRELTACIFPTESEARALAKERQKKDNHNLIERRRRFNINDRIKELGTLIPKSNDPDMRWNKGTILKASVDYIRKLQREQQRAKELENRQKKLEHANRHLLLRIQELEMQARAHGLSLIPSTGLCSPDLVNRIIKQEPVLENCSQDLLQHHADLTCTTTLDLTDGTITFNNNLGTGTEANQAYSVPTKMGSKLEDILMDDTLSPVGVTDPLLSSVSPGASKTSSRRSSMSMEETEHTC

Heat shock protein HSP90 = Heat shock protein HSP90 (Homo sapiens, UniProt P07900+P08238); experiment: Hsp90 blockade concentration-response – dose response (AID 712); type: functional
Large T antigen = Large T antigen (Simian virus 40, UniProt P03070); type: functional, Betapolyomavirus macacae;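 further: Confirmatory-stage PubChem screen for compounds that inhibit SV40 T antigen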
Chain of Large T antigen (P03070 whole entry): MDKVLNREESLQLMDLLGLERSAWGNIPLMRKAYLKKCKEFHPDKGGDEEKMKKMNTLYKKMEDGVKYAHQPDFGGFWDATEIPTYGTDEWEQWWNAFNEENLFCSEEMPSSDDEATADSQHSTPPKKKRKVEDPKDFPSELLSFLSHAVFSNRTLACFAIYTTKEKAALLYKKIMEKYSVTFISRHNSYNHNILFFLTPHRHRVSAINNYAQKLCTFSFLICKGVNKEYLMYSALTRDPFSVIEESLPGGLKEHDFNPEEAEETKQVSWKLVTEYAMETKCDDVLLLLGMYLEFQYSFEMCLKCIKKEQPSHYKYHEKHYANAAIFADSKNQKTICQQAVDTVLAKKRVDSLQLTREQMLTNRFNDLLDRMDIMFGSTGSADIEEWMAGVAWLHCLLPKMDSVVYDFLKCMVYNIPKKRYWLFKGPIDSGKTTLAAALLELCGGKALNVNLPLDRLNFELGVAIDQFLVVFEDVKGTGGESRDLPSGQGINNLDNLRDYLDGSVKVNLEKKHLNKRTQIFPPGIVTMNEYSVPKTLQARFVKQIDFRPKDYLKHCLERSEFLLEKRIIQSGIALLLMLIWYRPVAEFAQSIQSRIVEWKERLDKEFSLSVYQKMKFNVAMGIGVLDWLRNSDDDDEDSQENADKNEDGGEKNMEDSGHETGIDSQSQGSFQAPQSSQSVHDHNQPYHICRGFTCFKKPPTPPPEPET

NS3 = NS3 (Hepatitis C virus, UniProt A3EZJ3); experiment: PubChem AID 2173; set-up: species or system Hepacivirus hominis
Chain of NS3 (A3EZJ3 whole entry): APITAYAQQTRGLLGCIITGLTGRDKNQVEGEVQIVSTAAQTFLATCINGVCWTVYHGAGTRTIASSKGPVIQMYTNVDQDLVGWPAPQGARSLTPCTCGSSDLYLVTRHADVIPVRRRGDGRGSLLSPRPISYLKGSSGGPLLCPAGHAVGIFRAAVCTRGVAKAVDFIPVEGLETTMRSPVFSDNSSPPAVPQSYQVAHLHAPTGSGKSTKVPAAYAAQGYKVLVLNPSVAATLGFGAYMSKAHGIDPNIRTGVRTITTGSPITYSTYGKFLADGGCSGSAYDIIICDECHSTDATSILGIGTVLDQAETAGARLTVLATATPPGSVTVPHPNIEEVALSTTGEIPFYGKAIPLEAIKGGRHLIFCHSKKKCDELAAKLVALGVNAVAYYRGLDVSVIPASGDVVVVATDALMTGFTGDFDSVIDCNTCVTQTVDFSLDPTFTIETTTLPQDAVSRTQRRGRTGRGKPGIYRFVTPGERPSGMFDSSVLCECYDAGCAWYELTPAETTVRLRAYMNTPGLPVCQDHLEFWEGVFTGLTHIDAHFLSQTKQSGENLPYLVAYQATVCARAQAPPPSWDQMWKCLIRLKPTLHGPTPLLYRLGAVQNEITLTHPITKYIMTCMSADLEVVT

[14] = biological target: Solute carrier family 12 member 2/member 5 (Homo sapiens, UniProt P55011+Q9H2X9); experiment: KCC2 and NKCC1 inhibition by rubidium flux, cell-based, NKCC1 counter-screen (AID 1734); type: functional, HEK293

Compound: O=[N+]([O-])c1ccc2c(c1)nc(S)n2-c1ccccc1
- EC50 [1]: > 150 µM (inactive)
- EC50 [2]: 2.85 µM (active)
- IC50 [3]: 39.6 µM (active)
- IC50 [4]: 9.42 µM (active)

Compound: CCC1(CC)NC(=O)N(CC(=O)Nc2sc3c(c2C(N)=O)CCC3)C1=O
- IC50 (Genome polyprotein): > 49.8 µM (not active)
- IC50 (Estrogen receptor): < 1.56 µM (active)
- AC50 [5]: 32.9 µM (active)
- IC50 [6]: 3.98 µM (active)

Compound: CCOc1cc(CNc2ccc(O)cc2)ccc1OCc1ccc(Cl)cc1Cl
- IC50 [7]: > 50 µM (not active)
- IC50 [8]: 7.31 µM (not active)
- AC50 [9]: > 380 µM (inconclusive)
- EC50 (Protein RecA): 331 µM (active)
- IC50 (Protein Tat): 34 µM (inconclusive)
- CC50 [10]: 13.9 µM (active)
- CC50 [11]: > 40 µM (active)

Compound: CC(C)CC(=O)/C=C/n1c(=S)oc2ccccc21
- EC50 [12]: 1.2 µM (active)
- AC50 [13]: 10.5 µM (active)

Compound: Oc1ccc(/N=C/c2ccc(O)c(O)c2)cc1
- IC50 (Heat shock protein HSP90): 20.6061 µM
- IC50 (Large T antigen): 9.16 µM (active)
- AC50 [9]: 10.5 µM (inconclusive)
- EC50 (Protein RecA): > 380 µM (inconclusive)
- IC50 (Protein Tat): 15 µM (inconclusive)
- CC50 [10]: 22.2 µM (active)

Compound: CCOc1ccc(N2C(=O)C3Sc4nc(O)sc4C(/C=C/c4ccccc4)C3C2=O)cc1 (stereo not given)
- IC50 (NS3): 15.4 µM (not active)
- IC50 [14]: 0.3 µM (active)
